Legend:
Design in all cases: scale not given: the % may be the effect or the level left
[1] = biological target: T1, Serine/threonine-protein kinase D2 (Homo sapiens) (UniProt Q9BZL6); assay: Inhibition of human PKD2 assessed as enzyme activity at 1 uM using KKLNRTLSVA as substrate preincubated for 20 mins followed by [gamma-33P]-ATP addition and measured after 120 mins by radiometric Hot-SpotSM Kinase assay relative to control
T1 sequence (whole entry): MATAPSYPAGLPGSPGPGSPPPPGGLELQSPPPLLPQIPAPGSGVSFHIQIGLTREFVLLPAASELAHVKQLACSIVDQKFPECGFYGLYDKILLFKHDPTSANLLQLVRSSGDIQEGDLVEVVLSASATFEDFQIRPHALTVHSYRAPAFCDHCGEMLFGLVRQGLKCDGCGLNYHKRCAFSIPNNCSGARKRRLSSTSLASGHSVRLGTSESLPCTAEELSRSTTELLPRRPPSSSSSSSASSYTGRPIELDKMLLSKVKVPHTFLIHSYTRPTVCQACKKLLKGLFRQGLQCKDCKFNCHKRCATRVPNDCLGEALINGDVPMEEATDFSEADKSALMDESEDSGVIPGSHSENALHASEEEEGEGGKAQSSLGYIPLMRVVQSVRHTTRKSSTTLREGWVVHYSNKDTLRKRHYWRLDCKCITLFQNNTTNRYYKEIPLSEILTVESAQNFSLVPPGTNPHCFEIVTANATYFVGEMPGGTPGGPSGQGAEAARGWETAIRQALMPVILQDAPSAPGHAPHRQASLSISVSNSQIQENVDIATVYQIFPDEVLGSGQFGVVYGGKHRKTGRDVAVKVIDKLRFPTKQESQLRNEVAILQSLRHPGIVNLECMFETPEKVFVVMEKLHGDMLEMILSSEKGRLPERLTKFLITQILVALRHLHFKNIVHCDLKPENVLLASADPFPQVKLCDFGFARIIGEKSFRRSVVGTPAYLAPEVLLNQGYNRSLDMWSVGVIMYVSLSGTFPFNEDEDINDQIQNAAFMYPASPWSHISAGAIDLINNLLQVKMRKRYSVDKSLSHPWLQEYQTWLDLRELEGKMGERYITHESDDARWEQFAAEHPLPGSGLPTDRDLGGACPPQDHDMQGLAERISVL

[2] = biological target: Protein kinase C gamma type (Homo sapiens) (UniProt P05129); assay: Inhibition of human PKCg assessed as enzyme activity at 1 uM using ERMRPRKRQGSVRRRV as substrate preincubated for 20 mins followed by [gamma-33P]-ATP addition and measured after 120 mins by radiometric Hot-SpotSM Kinase assay relative to control
[3] = biological target: Serine/threonine-protein kinase 16 (Homo sapiens) (UniProt O75716); assay: Inhibition of human STK16 assessed as enzyme activity at 1 uM using myelin basic protein as substrate preincubated for 20 mins followed by [gamma-33P]-ATP addition and measured after 120 mins by radiometric Hot-SpotSM Kinase assay relative to control
[4] = biological target: T2, Beta-adrenergic receptor kinase 1 (Homo sapiens) (UniProt P25098); assay: Inhibition of human GRK2 assessed as enzyme activity at 1 uM using casein as substrate preincubated for 20 mins followed by [gamma-33P]-ATP addition and measured after 120 mins by radiometric Hot-SpotSM Kinase assay relative to control
T2 sequence (whole entry): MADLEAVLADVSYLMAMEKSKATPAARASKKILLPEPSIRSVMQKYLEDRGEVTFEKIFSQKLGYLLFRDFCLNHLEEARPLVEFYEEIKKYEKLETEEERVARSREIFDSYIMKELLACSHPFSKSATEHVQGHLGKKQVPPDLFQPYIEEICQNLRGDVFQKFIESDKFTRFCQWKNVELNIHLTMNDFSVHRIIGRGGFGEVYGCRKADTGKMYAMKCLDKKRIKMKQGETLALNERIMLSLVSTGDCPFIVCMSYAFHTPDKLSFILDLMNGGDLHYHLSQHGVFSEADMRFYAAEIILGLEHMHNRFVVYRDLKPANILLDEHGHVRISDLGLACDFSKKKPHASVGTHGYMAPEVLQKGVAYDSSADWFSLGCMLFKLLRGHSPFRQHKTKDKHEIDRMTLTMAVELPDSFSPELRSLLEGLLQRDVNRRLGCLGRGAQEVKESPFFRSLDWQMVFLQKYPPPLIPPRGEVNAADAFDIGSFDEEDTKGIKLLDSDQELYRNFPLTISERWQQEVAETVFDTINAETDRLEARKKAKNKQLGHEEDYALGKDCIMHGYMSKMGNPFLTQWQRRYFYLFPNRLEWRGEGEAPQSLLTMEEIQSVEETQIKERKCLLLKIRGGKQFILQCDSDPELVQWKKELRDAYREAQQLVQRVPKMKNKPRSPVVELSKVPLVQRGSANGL

[5] = biological target: T3, Aurora kinase C (Homo sapiens) (UniProt Q9UQB9); assay: Inhibition of human Aurora C assessed as enzyme activity at 1 uM using H-LRRASLG as substrate preincubated for 20 mins followed by [gamma-33P]-ATP addition and measured after 120 mins by radiometric Hot-SpotSM Kinase assay relative to control
T3 sequence (whole entry): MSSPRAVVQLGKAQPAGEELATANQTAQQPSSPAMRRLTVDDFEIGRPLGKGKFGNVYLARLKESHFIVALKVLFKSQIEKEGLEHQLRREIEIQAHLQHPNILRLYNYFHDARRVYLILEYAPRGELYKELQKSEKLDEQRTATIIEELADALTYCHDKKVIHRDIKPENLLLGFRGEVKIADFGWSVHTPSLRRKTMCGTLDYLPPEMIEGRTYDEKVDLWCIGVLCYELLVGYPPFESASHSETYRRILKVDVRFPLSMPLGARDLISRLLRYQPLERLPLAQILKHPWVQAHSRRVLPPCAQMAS

[6] = biological target: Tyrosine-protein kinase CSK (Homo sapiens) (UniProt P41240); assay: Inhibition of human CSK assessed as enzyme activity at 1 uM using poly[Glu:Tyr] (4:1) as substrate preincubated for 20 mins followed by [gamma-33P]-ATP addition and measured after 120 mins by radiometric Hot-SpotSM Kinase assay relative to control
Tyrosine-protein kinase CSK (Homo sapiens), sequence (P41240 2-450 limits assumed): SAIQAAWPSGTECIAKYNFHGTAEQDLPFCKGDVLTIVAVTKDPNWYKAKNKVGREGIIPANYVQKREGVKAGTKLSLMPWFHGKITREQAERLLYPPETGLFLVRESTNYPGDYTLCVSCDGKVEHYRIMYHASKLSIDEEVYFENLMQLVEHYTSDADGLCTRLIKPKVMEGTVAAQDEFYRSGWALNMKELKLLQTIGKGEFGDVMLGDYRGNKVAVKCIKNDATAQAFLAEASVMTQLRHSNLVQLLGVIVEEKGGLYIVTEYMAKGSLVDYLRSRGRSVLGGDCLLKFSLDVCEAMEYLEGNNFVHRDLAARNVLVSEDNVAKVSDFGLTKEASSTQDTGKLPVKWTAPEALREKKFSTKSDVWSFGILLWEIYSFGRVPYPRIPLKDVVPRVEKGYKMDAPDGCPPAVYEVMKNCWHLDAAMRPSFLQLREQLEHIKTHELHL

Serine/threonine-protein kinase 16 (Homo sapiens), sequence (O75716 whole entry): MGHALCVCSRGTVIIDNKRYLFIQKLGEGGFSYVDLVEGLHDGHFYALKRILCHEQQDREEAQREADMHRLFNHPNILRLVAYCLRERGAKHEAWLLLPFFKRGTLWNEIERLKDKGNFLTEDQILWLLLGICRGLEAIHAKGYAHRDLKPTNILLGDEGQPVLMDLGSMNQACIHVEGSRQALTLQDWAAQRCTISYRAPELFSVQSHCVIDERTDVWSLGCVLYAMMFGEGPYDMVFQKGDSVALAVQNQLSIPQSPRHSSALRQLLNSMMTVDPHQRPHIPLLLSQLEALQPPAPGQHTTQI

| SMILES | Activity [1] [%] | Activity [2] [%] | Activity [3] [%] | Activity [4] [%] | Activity [5] [%] | Activity [6] [%] |
| --- | --- | --- | --- | --- | --- | --- |
| CC[C@H](Nc1ncnc2[nH]cnc12)c1nc2cccc(F)c2c(=O)n1-c1ccccc1 | 101 | 96 | 105 | 93.9 | 90.8 | 99.1 |
| C[C@H](Nc1ncnc2nc[nH]c12)c1cc2cccc(Cl)c2c(=O)n1-c1ccccc1 | 99.2 | 97.3 | 106 | 94.2 | 89.4 | 97.9 |
| CC(C)Oc1ccc(-c2nn([C@@H](C)c3oc4ccc(F)cc4c(=O)c3-c3cccc(F)c3)c3ncnc(N)c23)cc1F [UMBRALISIB] | 101 | 99.8 | 108 | 94.5 | 94.2 | 94.1 |
